pEC50: −log10 of the molar value. Values after ≈ are worked out from the molar mass of the structure shown.
Legend:
HIV-1 (IIIB) = test: microbe, parasite or virus in culture; format: cell-based; settings: Human immunodeficiency virus 1, MT4, 120 h; HIV-1 (IIIB) replication in MT-4 cells, 5 days, Cell Titer Glo; read-out: MT4 EC50
in vitro = settings: human, uninfected MT-4 cells
physchem = settings: FaSSIF, 23 °C, thermodynamic from solid

| SMILES | pEC50 (HIV-1 (IIIB)) | CC50 at 5 days (in vitro) [µM] | solubility thermodynamic at 24 h (physchem) [µg/mL] |
| --- | --- | --- | --- |
| CC1=NO[C@@]2(CC[C@H](C)N3C[C@H]2n2cc(C(=O)NCc4ccc(F)cc4F)c(=O)c(OCOC(=O)O[C@@H](C)COP(=O)(O)O)c2C3=O)C1 [Compound 19, (((3′S,5S,7′R)-10′-((2,4-difluorobenzyl)carbamoyl)-3,3′-dimethyl-1′,11′-dioxo-1′,4′,5′,11′-tetrahydro-3′H,4H,7′H-spiro[isoxazole-5,6′-[2,7]methanopyrido[1,2-a][1,4]diazonin]-12′-yl)oxy)methyl ((S)-1-(phosphonooxy)propan-2-yl) carbonate] | 8.63 | 12.2 | 5060 (≈ 7.24 mM) |
| CC[C@H](COC(=O)OCOc1c2n(cc(C(=O)NCc3ccc(F)cc3F)c1=O)[C@@H]1CN(C2=O)[C@@H](C)CC[C@]12CC(C)=NO2)OP(=O)(O)O [Compound 64, (((3′S,5S,7′R)-10′-((2,4-difluorobenzyl)carbamoyl)-3,3′-dimethyl-1′,11′-dioxo-1′,4′,5′,11′-tetrahydro-3′H,4H,7′H-spiro[isoxazole-5,6′-[2,7]methanopyrido[1,2-a][1,4]diazonin]-12′-yl)oxy)methyl ((R)-2-(phosphonooxy)butyl) carbonate] | 8.91 | 13.6 | 4840 (≈ 6.8 mM) |
| CC1=NO[C@@]2(CC[C@H](C)N3C[C@H]2n2cc(C(=O)NCc4ccc(F)cc4F)c(=O)c(OCOC(=O)OC[C@H](C)OP(=O)(O)O)c2C3=O)C1 [Compound 17, (((3′S,5S,7′R)-10′-((2,4-difluorobenzyl)carbamoyl)-3,3′-dimethyl-1′,11′-dioxo-1′,4′,5′,11′-tetrahydro-3′H,4H,7′H-spiro[isoxazole-5,6′-[2,7]methanopyrido[1,2-a][1,4]diazonin]-12′-yl)oxy)methyl ((S)-2-(phosphonooxy)propyl) carbonate] | 8.69 | 13.7 | 4590 (≈ 6.57 mM) |
| CC1=NO[C@@]2(CC[C@H](C)N3C[C@H]2n2cc(C(=O)NCc4ccc(F)cc4F)c(=O)c(OCOC(=O)OCCOP(=O)(O)O)c2C3=O)C1 [Compound 4, (((3′S,5S,7′R)-10′-((2,4-difluorobenzyl)carbamoyl)-3,3′-dimethyl-1′,11′-dioxo-1′,4′,5′,11′-tetrahydro-3′H,4H,7′H-spiro[isoxazole-5,6′-[2,7]methanopyrido[1,2-a][1,4]diazonin]-12′-yl)oxy)methyl (2-(phosphonooxy)ethyl) carbonate] | 9.02 | 11.6 | 4300 (≈ 6.28 mM) |
| CC1=NO[C@@]2(CC[C@H](C)N3C[C@H]2n2cc(C(=O)NCc4ccc(F)cc4F)c(=O)c(OCOC(=O)O[C@H](C)[C@@H](C)OP(=O)(O)O)c2C3=O)C1 [Compound 27, (((3′S,5S,7′R)-10′-((2,4-difluorobenzyl)carbamoyl)-3,3′-dimethyl-1′,11′-dioxo-1′,4′,5′,11′-tetrahydro-3′H,4H,7′H-spiro[isoxazole-5,6′-[2,7]methanopyrido[1,2-a][1,4]diazonin]-12′-yl)oxy)methyl ((2R,3R)-3-(phosphonooxy)butan-2-yl) carbonate] | 8.61 | 18.7 | 4660 (≈ 6.55 mM) |
| CC1=NO[C@@]2(CC[C@H](C)N3C[C@H]2n2cc(C(=O)NCc4ccc(F)cc4F)c(=O)c(OCOC(=O)C(C)(C)CCN(CC(=O)O)C(=O)OCOP(=O)(O)O)c2C3=O)C1 [Compound 43, N-(4-((((3′S,5S,7′R)-10′-((2,4-difluorobenzyl)carbamoyl)-3,3′-dimethyl-1′,11′-dioxo-1′,4′,5′,11′-tetrahydro-3′H,4H,7′H-spiro[isoxazole-5,6′-[2,7]methanopyrido[1,2-a][1,4]diazonin]-12′-yl)oxy)methoxy)-3,3-dimethyl-4-oxobutyl)-N-(((phosphonooxy)methoxy)carbonyl)glycine] | 8.75 | 8.46 | 5420 (≈ 6.43 mM) |
| COC1=NO[C@@]2(CC[C@H](C)N3C[C@H]2n2cc(C(=O)NCc4ccc(F)cc4F)c(=O)c(OCOC(=O)O[C@@H](C)COP(=O)(O)O)c2C3=O)C1 [Compound 24, (((3′S,5S,7′R)-10′-((2,4-difluorobenzyl)carbamoyl)-3-methoxy-3′-methyl-1′,11′-dioxo-1′,4′,5′,11′-tetrahydro-3′H,4H,7′H-spiro[isoxazole-5,6′-[2,7]methanopyrido[1,2-a][1,4]diazonin]-12′-yl)oxy)methyl ((S)-1-(phosphonooxy)propan-2-yl) carbonate] | 8.64 | 17.1 | 5000 (≈ 7 mM) |
| CC[C@@H](COC(=O)OCOc1c2n(cc(C(=O)NCc3ccc(F)cc3F)c1=O)[C@@H]1CN(C2=O)[C@@H](C)CC[C@]12CC(OC)=NO2)OP(=O)(O)O [Compound 67, (((3′S,5S,7′R)-10′-((2,4-difluorobenzyl)carbamoyl)-3-methoxy-3′-methyl-1′,11′-dioxo-1′,4′,5′,11′-tetrahydro-3′H,4H,7′H-spiro[isoxazole-5,6′-[2,7]methanopyrido[1,2-a][1,4]diazonin]-12′-yl)oxy)methyl ((S)-2-(phosphonooxy)butyl) carbonate] | 8.62 | 14.4 | 5180 (≈ 7.12 mM) |
| COC1=NO[C@@]2(CC[C@H](C)N3C[C@H]2n2cc(C(=O)NCc4ccc(F)cc4F)c(=O)c(OCOC(=O)OCC(C)(C)COP(=O)(O)O)c2C3=O)C1 [Compound 32, (((3′S,5S,7′R)-10′-((2,4-difluorobenzyl)carbamoyl)-3-methoxy-3′-methyl-1′,11′-dioxo-1′,4′,5′,11′-tetrahydro-3′H,4H,7′H-spiro[isoxazole-5,6′-[2,7]methanopyrido[1,2-a][1,4]diazonin]-12′-yl)oxy)methyl (2,2-dimethyl-3-(phosphonooxy)propyl) carbonate] | 8.53 | 17.7 | 4800 (≈ 6.47 mM) |
| CC1=NO[C@@]2(CC[C@H](C)N3C[C@H]2n2cc(C(=O)NCc4ccc(F)cc4F)c(=O)c(OCOC(=O)OCC[N+](C)(C)C)c2C3=O)C1 [Compound 15, 2-((((((3′S,5S,7′R)-10′-((2,4-difluorobenzyl)carbamoyl)-3,3′-dimethyl-1′,11′-dioxo-1′,4′,5′,11′-tetrahydro-3′H,4H,7′H-spiro[isoxazole-5,6′-[2,7]methanopyrido[1,2-a][1,4]diazonin]-12′-yl)oxy)methoxy)carbonyl)oxy)-N,N,Ntrimethylethan-1-aminium trifluoroacetic acid] |  | 17.3 | 4370 |
| CC1=NO[C@@]2(CC[C@H](C)N3C[C@H]2n2cc(C(=O)NCc4ccc(F)cc4F)c(=O)c(OC(=O)OCC[N+](C)(C)C)c2C3=O)C1 [Compound 16, 2-(((((3′S,5S,7′R)-10′-((2,4-difluorobenzyl)carbamoyl)-3,3′-dimethyl-1′,11′-dioxo-1′,4′,5′,11′-tetrahydro-3′H,4H,7′H-spiro[isoxazole-5,6′-[2,7]methanopyrido[1,2-a][1,4]diazonin]-12′-yl)oxy)carbonyl)oxy)-N,N,N-trimethylethan-1-aminium trifluoroacetic acid] |  | 14.1 | 2230 |

— patent US20250120989A1, “BRIDGED TRICYCLIC CARBAMOYLPYRIDONE COMPOUNDS AND USES THEREOF” (priority 2023, published 2025)
